Measured values published in patent publication US12617783B2, “Heterocyclic GLP-1R agonists” (BIOMEA FUSION, INC., priority 2024, dated 2026).

Target: T1, human GLP-1R (Homo sapiens, UniProt P43220)
T1 construct: host or cells: HEK293
Assay: GLP-1R cAMP assay (Example B1a, HTRF, 30 min at room temperature)
Type: cell-based
Settings: cAMP accumulation in HEK293 expressing human GLP-1R, no BETP, 30 min room temperature (Method B1a, compounds ID 1-609), Table 1; read-out: EC50
Method: Assay was carried out with HEK293 expressing human GLP-1R using HTRF assay, developed by Wuxi Apptec. The method is a competitive assay between native cAMP produced by the cells and exogenous cAMP labeled with a proprietary dye d2. The tracer binding is visualized by a mAb anti-cAMP labeled with Cryptate. The signal (i.e. energy transfer) is inversely proportional to the concentration of CAMP in either standard or experimental sample. Compounds were tested in the absence of BETP. Ten microliter of cell suspension in assay buffer (5 mM HEPES, 500 μM IBMX, 0.1% BSA) were added to each well (1,000 cells per well) in a low volume 384-well plate for the assay. Serially diluted compounds were added in 100 nL volume to duplicate wells, by Labcyte Echo. GLP-1 (7-37) was used as positive control. Assay plate was incubated for 30 minutes at room temperature. Stock of cAMP Detection Solution was prepared by mixing 38 parts of cAMP lysis buffer, 1 part of cAMP-D2, 1 part of anti-cAMP cryptate reagent (Cisbio #62AM4PEJ). Ten microliter of the cAMP Detection Solution was added to each well, and the assay plate was incubated for 1 hour at room temperature in the dark. Plates were read on Envision plate reader. The data were analyzed by ScreenUltra in Dotmatics, with % activation expressed using following formula: (Well data−negative control)/(postive control−negative control)*100. Dose response curves were plotted and EC50 values calculated by non-linear regression using 4-parameter fit.

T1 sequence (P43220 24-463): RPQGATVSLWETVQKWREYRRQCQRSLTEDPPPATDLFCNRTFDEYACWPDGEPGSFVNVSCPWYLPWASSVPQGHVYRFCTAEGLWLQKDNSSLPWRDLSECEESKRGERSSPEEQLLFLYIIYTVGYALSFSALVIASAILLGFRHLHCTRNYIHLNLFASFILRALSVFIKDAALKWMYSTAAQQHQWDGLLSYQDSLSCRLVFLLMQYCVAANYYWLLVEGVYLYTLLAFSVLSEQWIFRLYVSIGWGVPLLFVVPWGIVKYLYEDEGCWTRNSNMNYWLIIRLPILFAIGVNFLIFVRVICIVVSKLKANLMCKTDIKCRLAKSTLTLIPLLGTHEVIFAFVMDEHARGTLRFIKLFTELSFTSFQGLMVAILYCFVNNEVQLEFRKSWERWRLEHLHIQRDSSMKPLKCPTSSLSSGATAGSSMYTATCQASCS

EC50 [nM]	Structure (SMILES)
292	Cc1cc(-n2nc3c(c2-n2ccn(-c4ccc5c(cnn5C)c4F)c2=O)[C@@H]2CC[C@H](C3)N2C(=O)c2cc3cc([C@@H]4COC(C)(C)C4)ccc3n2[C@@]2(c3noc(=O)[nH]3)C[C@@H]2C)cc(C)c1F [Compound 425, 3-[(1S,2S)-1-[5-[(3R)-5,5-dimethyltetrahydrofuran-3-yl]-2-[(1S,8R)-4-(4-fluoro-3,5-dimethyl-phenyl)-3-[3-(4-fluoro-1-methyl-indazol-5-yl)-2-oxo-imidazol-1-yl]-4,5,11-triazatricyclo[6.2.1.02,6]undeca-2,5-diene-11-carbonyl]indol-1-yl]-2-methyl-cyclopropyl]-4H-1,2,4-oxadiazol-5-one]
721	Cc1cc(-n2nc3c(c2-n2ccn(-c4ccc5nn(C(F)F)cc5c4F)c2=O)[C@@H]2CC[C@H](C3)N2C(=O)c2cc3cc([C@H]4CCOC(C)(C)C4)ccc3n2[C@@]2(c3noc(=O)[nH]3)C[C@@H]2C)cc(C)c1F [Compound 309, 3-((1S,2S)-1-(2-((4S,7R)-3-(3-(2-(difluoromethyl)-4-fluoro-2H-indazol-5-yl)-2-oxo-2,3-dihydro-1H-imidazol-1-yl)-2-(4-fluoro-3,5-dimethylphenyl)-2,4,5,6,7,8-hexahydro-4,7-epiminocyclohepta [c]pyrazole-9-carbonyl)-5-((S)-2,2-dimethyltetrahydro-2H-pyran-4-yl)-1H-indol-1-yl)-2-methylcyclopropyl)-1,2,4-oxadiazol-5 (4H)-one]
361	Cc1cc(-n2nc3c(c2-n2ccn(-c4ccc5c(cnn5C)c4F)c2=O)[C@@H]2CC[C@H](C3)N2C(=O)c2cc3cc(C4CCOC5(CCC5)C4)ccc3n2[C@@]2(c3noc(=O)[nH]3)C[C@@H]2C)cc(C)c1F (stereo partly drawn) [Compound 415, 3-((1S,2S)-1-(2-((4S,7R)-3-(3-(4-fluoro-1-methyl-1H-indazol-5-yl)-2-oxo-2,3-dihydro-1H-imidazol-1-yl)-2-(4-fluoro-3,5-dimethylphenyl)-2,4,5,6,7,8-hexahydro-4,7-epiminocyclohepta [c]pyrazole-9-carbonyl)-5-(5-oxaspiro[3.5]nonan-8-yl)-1H-indol-1-yl)-2-methylcyclopropyl)-1,2,4-oxadiazol-5 (4H)-one]
51	Cc1cc(-n2nc3c(c2-n2ccn(-c4ccc5c(cnn5C)c4F)c2=O)[C@@H]2CC[C@H](C3)N2C(=O)c2cc3cc([C@H]4CCOC(C)(C)C4)ncc3n2[C@@]2(c3noc(=O)[nH]3)C[C@@H]2C)cc(C)c1F [Compound 211, 3-((1S,2S)-1-(5-((S)-2,2-dimethyltetrahydro-2H-pyran-4-yl)-2-((4S,7R)-3-(3-(4-fluoro-1-methyl-1H-indazol-5-yl)-2-oxo-2,3-dihydro-1H-imidazol-1-yl)-2-(4-fluoro-3,5-dimethylphenyl)-2,4,5,6,7,8-hexahydro-4,7-epiminocyclohepta [c]pyrazole-9-carbonyl)-1H-pyrrolo[2,3-c]pyridin-1-yl)-2-methylcyclopropyl)-1,2,4-oxadiazol-5 (4H)-one]
> 10000	Cc1cc(-n2nc3c(c2N2C(=O)CN(c4ccc5c(cnn5C)c4F)C2=O)[C@H]2CC[C@@H](C3)N2C(=O)c2cc3cc([C@H]4CCOC(C)(C)C4)ccc3n2[C@@]2(c3noc(=O)[nH]3)C[C@@H]2C)cc(C)c1F [Compound 234, 3-[(1R,8S)-11-[5-[(4S)-2,2-dimethyltetrahydropyran-4-yl]-1-[(1S,2S)-2-methyl-1-(5-oxo-4H-1,2,4-oxadiazol-3-yl)cyclopropyl]indole-2-carbonyl]-4-(4-fluoro-3,5-dimethyl-phenyl)-4,5,11-triazatricyclo[6.2.1.02,6]undeca-2,5-dien-3-yl]-1-(4-fluoro-1-methyl-indazol-5-yl)imidazolidine-2,4-dione]
> 10000	Cc1cc(-n2nc3c(c2-n2ccn(-c4ccc5c(cnn5C)c4F)c2=O)[C@@H]2CC[C@H](C3)N2C(=O)c2cc3c(=O)n([C@@H]4CCOC(C)(C)C4)ccc3n2[C@@]2(c3noc(=O)[nH]3)C[C@@H]2C)cc(C)c1F [Compound 239, 3-[(1S,2S)-1-[5-[(4R)-2,2-dimethyltetrahydropyran-4-yl]-2-[(1S,8R)-4-(4-fluoro-3,5-dimethyl-phenyl)-3-[3-(4-fluoro-1-methyl-indazol-5-yl)-2-oxo-imidazol-1-yl]-4,5,11-triazatricyclo[6.2.1.02,6]undeca-2,5-diene-11-carbonyl]-4-oxo-pyrrolo[3,2-c]pyridin-1-yl]-2-methyl-cyclopropyl]-4H-1,2,4-oxadiazol-5-one]
≥ 10000	Cc1cc(-n2nc3c(c2-n2ccn(-c4ccc5c(cnn5C)c4F)c2=O)[C@H]2CC[C@@H](C3)N2C(=O)c2cc3cc([C@@H]4CCOC5(CC5)C4)ccc3n2[C@]2(c3noc(=O)[nH]3)C[C@@H]2C)cc(C)c1F [Compound 530, 3-[(1R,2S)-1-[2-[(1R,8S)-4-(4-fluoro-3,5-dimethyl-phenyl)-3-[3-(4-fluoro-1-methyl-indazol-5-yl)-2-oxo-imidazol-1-yl]-4,5,11-triazatricyclo[6.2.1.02,6]undeca-2,5-diene-11-carbonyl]-5-[(7R)-4-oxaspiro[2.5]octan-7-yl]indol-1-yl]-2-methyl-cyclopropyl]-4H-1,2,4-oxadiazol-5-one]
≥ 10000	Cc1cc(-n2nc3c(c2-n2ccn(-c4ccc5c(cnn5C)c4F)c2=O)C2CCC(CC3)N2C(=O)c2cc3cc([C@H]4CCOC(C)(C)C4)ccc3n2[C@@]2(c3noc(=O)[nH]3)C[C@@H]2C)cc(C)c1F (stereo partly drawn) [Compound 522, 3-[(1S,2S)-1-[5-[(4S)-2,2-dimethyltetrahydropyran-4-yl]-2-[4-(4-fluoro-3,5-dimethyl-phenyl)-3-[3-(4-fluoro-1-methyl-indazol-5-yl)-2-oxo-imidazol-1-yl]-4,5,12-triazatricyclo[7.2.1.02,6]dodeca-2,5-diene-12-carbonyl]indol-1-yl]-2-methyl-cyclopropyl]-4H-1,2,4-oxadiazol-5-one]
452	Cc1cc(-n2nc3c(c2-n2ccn(-c4ccc5c(cnn5C)c4F)c2=O)[C@@H]2CC[C@H](C3)N2C(=O)c2cc3cc([C@H]4CCOC(C)(C)C4)ccc3n2C2(c3nnn[nH]3)CC2)cc(C)c1F [Compound 118, 1-((4S,7R)-9-(1-(1-(1H-tetrazol-5-yl)cyclopropyl)-5-((S)-2,2-dimethyltetrahydro-2H-pyran-4-yl)-1H-indole-2-carbonyl)-2-(4-fluoro-3,5-dimethylphenyl)-2,4,5,6,7,8-hexahydro-4,7-epiminocyclohepta [c]pyrazol-3-yl)-3-(4-fluoro-1-methyl-1H-indazol-5-yl)-1H-imidazol-2 (3H)-one]
2280	Cc1cc(-n2nc3c(c2-n2ccn(-c4ccc5nnccc5c4)c2=O)[C@@H]2CC[C@H](C3)N2C(=O)c2cc3cc([C@H]4CCOC(C)(C)C4)ccc3n2C2(c3noc(=O)[nH]3)CC2)cc(C)c1F [Compound 119, 3-[1-[2-[(1S,8R)-3-(3-cinnolin-6-yl-2-oxo-imidazol-1-yl)-4-(4-fluoro-3,5-dimethyl-phenyl)-4,5,11-triazatricyclo[6.2.1.02,6]undeca-2,5-diene-11-carbonyl]-5-[(4S)-2,2-dimethyltetrahydropyran-4-yl]indol-1-yl]cyclopropyl]-4H-1,2,4-oxadiazol-5-one]
> 10000	Cc1cc(-n2nc3c(c2-n2ccn(-c4ccc5c(cnn5C)c4F)c2=O)[C@@H]2CC[C@H](C3)N2C(=O)c2cc3nc(C4CCOC(C)(C)C4)sc3n2C2(c3noc(=O)[nH]3)CC2C)cc(C)c1F (stereo partly drawn) [Compound 202, 3-[1-[2-(2,2-dimethyltetrahydropyran-4-yl)-5-[(1S,8R)-4-(4-fluoro-3,5-dimethyl-phenyl)-3-[3-(4-fluoro-1-methyl-indazol-5-yl)-2-oxo-imidazol-1-yl]-4,5,11-triazatricyclo[6.2.1.02,6]undeca-2,5-diene-11-carbonyl]pyrrolo[3,2-d]thiazol-4-yl]-2-methyl-cyclopropyl]-4H-1,2,4-oxadiazol-5-one]
> 10000	Cc1cc(-n2nc3c(c2-n2cc(-c4ccc5c(cnn5C)c4F)nn2)[C@H](C)N(C(=O)c2cc4cc([C@H]5CCOC(C)(C)C5)ccc4n2[C@@]2(c4noc(=O)[nH]4)C[C@@H]2C)CC3)cc(C)c1F [Compound 1, 3-((1S,2S)-1-(5-((S)-2,2-dimethyltetrahydro-2H-pyran-4-yl)-2-((S)-3-(4-(4-fluoro-1-methyl-1H-indazol-5-yl)-1H-1,2,3-triazol-1-yl)-2-(4-fluoro-3,5-dimethylphenyl)-4-methyl-4,5,6,7-tetrahydro-2H-pyrazolo[4,3-c]pyridine-5-carbonyl)-1H-indol-1-yl)-2-methylcyclopropyl)-1,2,4-oxadiazol-5 (4H)-one]

Structure (SMILES)	EC50 [nM]
Cc1cc(-n2nc3c(c2-n2ccn(-c4ccc5c(cnn5C)c4F)c2=O)[C@H]2CC[C@@H](C3)N2C(=O)c2cc3cc([C@H]4CCOC(C)(C)C4)ccc3n2[C@@]2(c3noc(=O)[nH]3)C[C@@H]2C)cc(C)c1F [Compound 35, 3-((1S,2S)-1-(5-((S)-2,2-dimethyltetrahydro-2H-pyran-4-yl)-2-((4R,7S)-3-(3-(4-fluoro-1-methyl-1H-indazol-5-yl)-2-oxo-2,3-dihydro-1H-imidazol-1-yl)-2-(4-fluoro-3,5-dimethylphenyl)-2,4,5,6,7,8-hexahydro-4,7-epiminocyclohepta [c]pyrazole-9-carbonyl)-1H-indol-1-yl)-2-methylcyclopropyl)-1,2,4-oxadiazol-5 (4H)-one]	≥ 100000

Same assay, conditions: text to Table 1d, bridge atoms configured out of the plane or toward the reader

Structure (SMILES)	potency
Cc1cc(-n2nc3c(c2-n2ccn(-c4ccc5c(cnn5C)c4F)c2=O)[C@H]2CC[C@@H](C3)N2C(=O)c2cc3cc([C@H]4CCOC(C)(C)C4)ccc3n2[C@@]2(c3noc(=O)[nH]3)C[C@@H]2C)cc(C)c1F [Compound 35, 3-((1S,2S)-1-(5-((S)-2,2-dimethyltetrahydro-2H-pyran-4-yl)-2-((4R,7S)-3-(3-(4-fluoro-1-methyl-1H-indazol-5-yl)-2-oxo-2,3-dihydro-1H-imidazol-1-yl)-2-(4-fluoro-3,5-dimethylphenyl)-2,4,5,6,7,8-hexahydro-4,7-epiminocyclohepta [c]pyrazole-9-carbonyl)-1H-indol-1-yl)-2-methylcyclopropyl)-1,2,4-oxadiazol-5 (4H)-one]	little or no potency
